# Measured values reported in patent US10668062B2, “Oxabicycloheptanes and oxabicycloheptenes for the treatment of diabetes” (priority 2012, dated 2020).
# “Also recorded” adds a separate entry of the source.
# Experiments:
# [1] = Activity when given orally to mice; format: in vivo; conditions: oral
# Text: (§1) The compounds used in the method of the present invention are protein phosphatase 2A (PP2A) inhibitors (Lu et al., 2009; U.S. Pat. No. 7,998,957 B2). […] It has also been shown that another structural homolog of these compounds, LB-107, is active when given orally to mice.
# (§2) Disclosed herein is that PP2A inhibitors are effective in treating insulin resistance, Type 2 Diabetes and disorders related to Type 2 Diabetes. […] We have also shown that another structural homolog of these compounds, LB-107, is active when given orally to mice. LB-100 is entering clinical trials as a potential agent for enhancing the effectiveness of certain anticancer agents.
# Akt = experiment: Dephosphorylation and inactivation of Akt in mammalian cells (Example 3); format: cell-based; conditions: mammalian cells incl. fat, liver, muscle, endothelial cells, hepatocytes, pancreatic islet β-cells
# [2] = Insulin resistance in human patients diagnosed with Type 2 Diabetes (Example 4); format: in vivo
# [3] = Type 2 Diabetes related vascular injury in human patients (Example 5); format: in vivo; conditions: human patients diagnosed with Type 2 Diabetes
# [4] = Other symptoms and complications of Type 2 Diabetes (Example 6); format: in vivo; conditions: for effects of other dysfunctions associated with or caused by Type 2 Diabetes: atherosclerosis, low glucose tolerance, dyslipidemia, hyperlipidemia, hypertriglyceridemia, hypercholesterolemia; for complications associated with or caused by Type 2 Diabetes: in vivo
# cancer cells = experiment: Growth of cancer cells in mouse model systems; format: in vivo
# Text: as §1, §2
# Toxicity studies in rats = format: in vivo; conditions: doses known to reduce PP2A activity in tissue
# Text: as §2
# Toxicity studies in dogs = format: in vivo; conditions: doses known to reduce PP2A activity in tissue
# Text: as §2
# PP2A [5] = molecular target: T1, PP2A (Homo sapiens, UniProt P67775); conditions: cited from earlier work
# T1 construct: endogenous in cells; host or cells: human cancer cells
# T1 sequence (P67775 whole entry): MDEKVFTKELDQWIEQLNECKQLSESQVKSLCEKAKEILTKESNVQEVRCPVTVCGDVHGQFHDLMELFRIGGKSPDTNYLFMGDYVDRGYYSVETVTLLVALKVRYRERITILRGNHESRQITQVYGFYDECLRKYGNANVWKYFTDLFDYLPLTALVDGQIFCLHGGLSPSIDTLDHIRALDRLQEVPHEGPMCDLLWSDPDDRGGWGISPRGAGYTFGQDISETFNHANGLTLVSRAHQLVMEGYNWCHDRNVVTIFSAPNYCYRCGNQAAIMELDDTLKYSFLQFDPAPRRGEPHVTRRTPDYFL
# T1 sequence (P30153 whole entry partner): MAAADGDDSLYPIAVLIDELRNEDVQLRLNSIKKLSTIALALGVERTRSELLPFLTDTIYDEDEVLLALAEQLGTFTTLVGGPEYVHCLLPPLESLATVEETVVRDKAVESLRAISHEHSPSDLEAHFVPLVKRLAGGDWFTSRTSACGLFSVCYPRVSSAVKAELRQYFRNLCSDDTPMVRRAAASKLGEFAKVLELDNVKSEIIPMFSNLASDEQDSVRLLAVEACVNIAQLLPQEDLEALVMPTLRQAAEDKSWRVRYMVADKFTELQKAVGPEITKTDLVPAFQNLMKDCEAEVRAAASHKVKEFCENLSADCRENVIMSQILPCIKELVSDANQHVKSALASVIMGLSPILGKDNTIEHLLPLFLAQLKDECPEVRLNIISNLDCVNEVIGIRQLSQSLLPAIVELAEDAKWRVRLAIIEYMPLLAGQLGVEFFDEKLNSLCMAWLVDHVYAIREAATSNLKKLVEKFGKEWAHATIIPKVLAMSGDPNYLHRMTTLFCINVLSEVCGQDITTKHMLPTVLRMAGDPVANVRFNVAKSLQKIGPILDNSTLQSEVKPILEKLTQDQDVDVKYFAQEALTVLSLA
# PP2A [6] = molecular target: T1, PP2A; conditions: given parenterally in mice; cited from earlier work
# endothelial barrier [7] = conditions: Zhou et al, 2012; cited from earlier work
# endothelial barrier [8] = conditions: model of sepsis; by inhibition of PP2A activation; cited from earlier work
# PP2A [9] = molecular target: T2, PP2A (Rattus norvegicus, UniProt P63331); conditions: inhibition of PP2A activity; Galbo et al, 2011; cited from earlier work
# T2 construct: rat liver cells exposed to palmitate, a fatty acid, PP2A activity is increased; host or cells: rat liver cells (endogenous PP2A)
# T2 sequence (P63331 whole entry): as the sequence (P67775 whole entry) above, with V5L counted along it
# T2 sequence (Q5XI34 1-589 partner): as the sequence (P30153 whole entry partner) above, with S324T counted along it
SMILES,activity when given orally to mice [1],activation of Akt (Akt),dephosphorylation and inactivation of Akt by PP2A (Akt),phosphorylation of Akt (Akt),insulin resistance [2],insulin sensitivity [2],Type 2 Diabetes related vascular injury caused by disruption of the endothelial barrier [3],"Type 2 Diabetes related vascular injury in the liver, muscle, retina and pancreas [3]",effects of other dysfunctions associated with or caused by Type 2 Diabetes [4],complications associated with or caused by Type 2 Diabetes [4],growth of cancer cells in mouse model systems (cancer cells),toxicity on intravenous administration (Toxicity studies in rats),toxicity on intravenous administration (Toxicity studies in dogs),inhibition of PP2A in vitro in human cancer cells (PP2A [5]),inhibition of PP2A in xenografts of human tumor cells in mice (PP2A [6]),induction of endothelial barrier injury by lipopolysaccharide and interferon gamma (endothelial barrier [7]),endothelial barrier function (endothelial barrier [8]),impairment of insulin activity (PP2A [9])
"COC(=O)C1C(C(=O)N2CCN(C)CC2)[C@@H]2CC[C@H]1O2 (stereo in doubt) [LB-107, 3-(4-Methylpiperazine-1-carbonyl)-7-oxa-bicyclo[2,2,1]heptane-2-carboxylic acid methyl ester]",active,increase activation of Akt,reduce dephophorylation and inactivation of Akt,increase phosphorylation of Akt,reduce insulin resistance,increase insulin sensitivity,reduce Type 2 Diabetes related vascular injury caused by disruption of the endothelial barrier,"reduce Type 2 Diabetes related vascular injury in the liver, muscle, retina and pancreas",reduce the effects of other dysfunctions,reduce complications associated with or caused by Type 2 Diabetes,–,–,–,–,–,–,–,–
CN1CCN(C(=O)C2C(C(=O)O)[C@H]3CC[C@@H]2O3)CC1 (some centres unmarked) [LB-100],–,increase activation of Akt,reduce dephophorylation and inactivation of Akt,increase phosphorylation of Akt,reduce insulin resistance,increase insulin sensitivity,reduce Type 2 Diabetes related vascular injury caused by disruption of the endothelial barrier,"reduce Type 2 Diabetes related vascular injury in the liver, muscle, retina and pancreas",reduce the effects of other dysfunctions,reduce complications associated with or caused by Type 2 Diabetes,inhibit the growth of cancer cells,without undue toxicity,without undue toxicity,inhibitors of PP2A,inhibitors of PP2A,–,–,–
CC(C)(C)OC(=O)N1CCN(C(=O)C2C(C(=O)O)[C@H]3CC[C@@H]2O3)CC1 (some centres unmarked) [LB-102],–,increase activation of Akt,reduce dephophorylation and inactivation of Akt,increase phosphorylation of Akt,reduce insulin resistance,increase insulin sensitivity,reduce Type 2 Diabetes related vascular injury caused by disruption of the endothelial barrier,"reduce Type 2 Diabetes related vascular injury in the liver, muscle, retina and pancreas",reduce the effects of other dysfunctions,reduce complications associated with or caused by Type 2 Diabetes,inhibit the growth of cancer cells,–,–,inhibitors of PP2A,inhibitors of PP2A,–,–,–
O=C1O[C@H]([C@@H](O)CO)C(O)=C1O [ascorbic acid],–,–,–,–,–,–,–,–,–,–,–,–,–,–,–,prevent the induction of endothelial barrier injury,improves endothelial barrier function,–
C[C@@]12C(=O)OC(=O)[C@]1(C)[C@H]1CC[C@@H]2O1 [cantharidin],–,–,–,–,–,–,–,–,–,–,–,–,–,–,–,–,–,reversed the impairment of insulin activity
C=C1[C@@H](O)[C@@H]2O[C@]3(CC[C@H](/C=C/[C@@H](C)[C@@H]4CC(C)=C[C@@]5(O[C@H](C[C@@](C)(O)C(=O)O)CC[C@H]5O)O4)O3)CC[C@H]2O[C@@H]1[C@@H](O)C[C@H](C)[C@H]1O[C@@]2(CCCCO2)CC[C@H]1C [okadaic acid],–,–,–,–,–,–,–,–,–,–,–,–,–,–,–,prevent the induction of endothelial barrier injury; also recorded: prevents the induction of endothelial barrier dysfunction,–,reversed the impairment of insulin activity
